Data published in PubChem BioAssay (NCI).
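Interpolation was linear, between the two tested concentrations surrounding the appropriate level; five concentrations were tested over 48 hours in 96-well plates. GI50 marks 50% less growth. The concentration for full growth arrest is given as TGI.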

Key:
Assay in all cases: DTP human tumour cell line panel, 48 h
786-0 renal = system: 786-0 renal
A498 renal = system: A498 renal
A549 NSCLC = system: A549 NSCLC
ACHN renal = system: ACHN renal
BT-549 breast = system: BT-549 breast
CAKI-1 renal = system: CAKI-1 renal
CCRF-CEM leukemia = system: CCRF-CEM leukemia
COLO 205 colon = system: COLO 205 colon
DU-145 prostate = system: DU-145 prostate
EKVX NSCLC = system: EKVX NSCLC
HCC-2998 colon = system: HCC-2998 colon
HCT-116 colon = system: HCT-116 colon
HCT-15 colon = system: HCT-15 colon
HL-60(TB) leukemia = system: HL-60(TB) leukemia
HOP-62 NSCLC = system: HOP-62 NSCLC
HOP-92 NSCLC = system: HOP-92 NSCLC
HS 578T breast = system: HS 578T breast
HT29 colon = system: HT29 colon
IGROV1 ovarian = system: IGROV1 ovarian
K-562 leukemia = system: K-562 leukemia
KM12 colon = system: KM12 colon
LOX IMVI melanoma = system: LOX IMVI melanoma
M14 melanoma = system: M14 melanoma
MALME-3M melanoma = system: MALME-3M melanoma
MCF7 breast = system: MCF7 breast
MDA-MB-231 breast = system: MDA-MB-231 breast
MDA-MB-435 = system: MDA-MB-435
MDA-MB-468 breast = system: MDA-MB-468 breast
MOLT-4 leukemia = system: MOLT-4 leukemia
NCI-H226 lung = system: NCI-H226 lung
NCI-H23 lung = system: NCI-H23 lung
NCI-H460 lung = system: NCI-H460 lung
NCI-H522 lung = system: NCI-H522 lung
NCI/ADR-RES ovarian = system: NCI/ADR-RES ovarian
OVCAR-3 ovarian = system: OVCAR-3 ovarian
OVCAR-4 ovarian = system: OVCAR-4 ovarian
OVCAR-5 ovarian = system: OVCAR-5 ovarian
OVCAR-8 ovarian = system: OVCAR-8 ovarian
PC-3 prostate = system: PC-3 prostate
RPMI-8226 leukemia = system: RPMI-8226 leukemia
RXF 393 renal = system: RXF 393 renal
SF-268 CNS = system: SF-268 CNS
SF-295 CNS = system: SF-295 CNS
SF-539 CNS = system: SF-539 CNS
SK-MEL-2 melanoma = system: SK-MEL-2 melanoma
SK-MEL-28 melanoma = system: SK-MEL-28 melanoma
SK-MEL-5 melanoma = system: SK-MEL-5 melanoma
SK-OV-3 ovarian = system: SK-OV-3 ovarian
SN12C renal = system: SN12C renal
SNB-19 CNS = system: SNB-19 CNS
SNB-75 CNS = system: SNB-75 CNS
SR leukemia = system: SR leukemia
SW-620 colon = system: SW-620 colon
T-47D breast = system: T-47D breast
TK-10 renal = system: TK-10 renal
U251 CNS = system: U251 CNS
UACC-257 melanoma = system: UACC-257 melanoma
UACC-62 melanoma = system: UACC-62 melanoma
UO-31 renal = system: UO-31 renal

For `O=c1cc(-c2ccccc2)oc2cc(OCCCC[P+](c3ccccc3)(c3ccccc3)c3ccccc3)cc(O)c12`, which GI50 (786-0 renal) is on record?
Its GI50 is 1860 nM.

What about the TGI (786-0 renal) of the same compound?
Its TGI is 3840 nM.

And the GI50 (A498 renal)?
The GI50 was 2030 nM.

What about the TGI (A498 renal) of the same compound?
The TGI was 5590 nM.

What about the GI50 (A549 NSCLC) of the same compound?
Its GI50 is 2820 nM.

And the TGI (A549 NSCLC)?
Its TGI is 16500 nM.

And the GI50 (ACHN renal)?
Its GI50 is 996 nM.

What about the TGI (ACHN renal) of the same compound?
Its TGI is 2390 nM.

What about the GI50 (BT-549 breast) of the same compound?
The GI50 was 542 nM.

What about the TGI (BT-549 breast) of the same compound?
The TGI was 1740 nM.

And the GI50 (CAKI-1 renal)?
The GI50 was 1630 nM.

What about the TGI (CAKI-1 renal) of the same compound?
The TGI was 4340 nM.

And the GI50 (CCRF-CEM leukemia)?
The GI50 was 826 nM.

And the TGI (CCRF-CEM leukemia)?
Its TGI is 4750 nM.

And the GI50 (COLO 205 colon)?
The GI50 was 1470 nM.

And the TGI (COLO 205 colon)?
The TGI was 3010 nM.

What about the GI50 (DU-145 prostate) of the same compound?
Its GI50 is 813 nM.

And the TGI (DU-145 prostate)?
The TGI was 2970 nM.

And the GI50 (EKVX NSCLC)?
Its GI50 is 494 nM.

What about the TGI (EKVX NSCLC) of the same compound?
Its TGI is 1860 nM.

What about the GI50 (HCC-2998 colon) of the same compound?
The GI50 was 412 nM.

And the TGI (HCC-2998 colon)?
Its TGI is 1540 nM.

And the GI50 (HCT-116 colon)?
Its GI50 is 863 nM.

What about the TGI (HCT-116 colon) of the same compound?
Its TGI is 2120 nM.

What about the GI50 (HCT-15 colon) of the same compound?
The GI50 was 1020 nM.

And the TGI (HCT-15 colon)?
The TGI was 2480 nM.

And the GI50 (HL-60(TB) leukemia)?
Its GI50 is 246 nM.

And the TGI (HL-60(TB) leukemia)?
The TGI was 1820 nM.

And the GI50 (HOP-62 NSCLC)?
The GI50 was 1420 nM.

What about the TGI (HOP-62 NSCLC) of the same compound?
Its TGI is 2870 nM.

What about the GI50 (HOP-92 NSCLC) of the same compound?
The GI50 was 292 nM.

And the TGI (HOP-92 NSCLC)?
Its TGI is 1130 nM.

And the GI50 (HS 578T breast)?
Its GI50 is 1320 nM.

What about the TGI (HS 578T breast) of the same compound?
Its TGI is 4270 nM.

What about the GI50 (HT29 colon) of the same compound?
Its GI50 is 2600 nM.

What about the TGI (HT29 colon) of the same compound?
The TGI was 11300 nM.

What about the GI50 (IGROV1 ovarian) of the same compound?
Its GI50 is 785 nM.

And the TGI (IGROV1 ovarian)?
Its TGI is 2360 nM.

What about the GI50 (K-562 leukemia) of the same compound?
The GI50 was 326 nM.

And the TGI (K-562 leukemia)?
Its TGI is > 100000 nM.

What about the GI50 (KM12 colon) of the same compound?
The GI50 was 738 nM.

And the TGI (KM12 colon)?
Its TGI is 2130 nM.

What about the GI50 (LOX IMVI melanoma) of the same compound?
Its GI50 is 1130 nM.

And the TGI (LOX IMVI melanoma)?
The TGI was 2360 nM.

And the GI50 (M14 melanoma)?
Its GI50 is 408 nM.

What about the TGI (M14 melanoma) of the same compound?
The TGI was 1540 nM.

What about the GI50 (MALME-3M melanoma) of the same compound?
The GI50 was 397 nM.

And the TGI (MALME-3M melanoma)?
Its TGI is 1190 nM.

What about the GI50 (MCF7 breast) of the same compound?
Its GI50 is 499 nM.

What about the TGI (MCF7 breast) of the same compound?
The TGI was 2280 nM.

What about the GI50 (MDA-MB-231 breast) of the same compound?
The GI50 was 1070 nM.

And the TGI (MDA-MB-231 breast)?
The TGI was 2570 nM.

And the GI50 (MDA-MB-435)?
Its GI50 is 356 nM.

And the TGI (MDA-MB-435)?
The TGI was 1390 nM.

And the GI50 (MDA-MB-468 breast)?
The GI50 was 148 nM.

What about the TGI (MDA-MB-468 breast) of the same compound?
The TGI was 433 nM.

And the GI50 (MOLT-4 leukemia)?
Its GI50 is 771 nM.

And the TGI (MOLT-4 leukemia)?
The TGI was 3240 nM.

And the GI50 (NCI-H226 lung)?
The GI50 was 1500 nM.

What about the TGI (NCI-H226 lung) of the same compound?
The TGI was 4200 nM.

And the GI50 (NCI-H23 lung)?
The GI50 was 1100 nM.

And the TGI (NCI-H23 lung)?
Its TGI is 2740 nM.

And the GI50 (NCI-H460 lung)?
The GI50 was 509 nM.

And the TGI (NCI-H460 lung)?
The TGI was 1810 nM.

And the GI50 (NCI-H522 lung)?
Its GI50 is 789 nM.

And the TGI (NCI-H522 lung)?
Its TGI is 2540 nM.

What about the GI50 (NCI/ADR-RES ovarian) of the same compound?
Its GI50 is 3290 nM.

And the TGI (NCI/ADR-RES ovarian)?
The TGI was > 100000 nM.

What about the GI50 (OVCAR-3 ovarian) of the same compound?
The GI50 was 526 nM.

What about the TGI (OVCAR-3 ovarian) of the same compound?
The TGI was 2220 nM.

What about the GI50 (OVCAR-4 ovarian) of the same compound?
Its GI50 is 549 nM.

What about the TGI (OVCAR-4 ovarian) of the same compound?
Its TGI is 6760 nM.

What about the GI50 (OVCAR-5 ovarian) of the same compound?
The GI50 was 1580 nM.

And the TGI (OVCAR-5 ovarian)?
The TGI was 5110 nM.

And the GI50 (OVCAR-8 ovarian)?
Its GI50 is 1040 nM.

What about the TGI (OVCAR-8 ovarian) of the same compound?
Its TGI is 6100 nM.

What about the GI50 (PC-3 prostate) of the same compound?
The GI50 was 899 nM.

What about the TGI (PC-3 prostate) of the same compound?
The TGI was 2700 nM.

And the GI50 (RPMI-8226 leukemia)?
The GI50 was 303 nM.

And the TGI (RPMI-8226 leukemia)?
The TGI was 1820 nM.

What about the GI50 (RXF 393 renal) of the same compound?
The GI50 was 707 nM.

What about the TGI (RXF 393 renal) of the same compound?
Its TGI is 2150 nM.

And the GI50 (SF-268 CNS)?
Its GI50 is 1290 nM.

What about the TGI (SF-268 CNS) of the same compound?
The TGI was 3560 nM.

And the GI50 (SF-295 CNS)?
The GI50 was 1410 nM.

And the TGI (SF-295 CNS)?
Its TGI is 2760 nM.

What about the GI50 (SF-539 CNS) of the same compound?
The GI50 was 892 nM.

And the TGI (SF-539 CNS)?
The TGI was 2150 nM.

What about the GI50 (SK-MEL-2 melanoma) of the same compound?
The GI50 was 238 nM.

And the TGI (SK-MEL-2 melanoma)?
Its TGI is 603 nM.

What about the GI50 (SK-MEL-28 melanoma) of the same compound?
The GI50 was 601 nM.

And the TGI (SK-MEL-28 melanoma)?
Its TGI is 1830 nM.

And the GI50 (SK-MEL-5 melanoma)?
Its GI50 is 276 nM.

What about the TGI (SK-MEL-5 melanoma) of the same compound?
The TGI was 693 nM.

What about the GI50 (SK-OV-3 ovarian) of the same compound?
The GI50 was 728 nM.

And the TGI (SK-OV-3 ovarian)?
The TGI was 1920 nM.

And the GI50 (SN12C renal)?
The GI50 was 603 nM.

What about the TGI (SN12C renal) of the same compound?
The TGI was 1660 nM.

What about the GI50 (SNB-19 CNS) of the same compound?
The GI50 was 410 nM.

And the TGI (SNB-19 CNS)?
The TGI was 1420 nM.

And the GI50 (SNB-75 CNS)?
The GI50 was 419 nM.

What about the TGI (SNB-75 CNS) of the same compound?
The TGI was 1680 nM.

What about the GI50 (SR leukemia) of the same compound?
Its GI50 is 834 nM.

What about the TGI (SR leukemia) of the same compound?
Its TGI is > 100000 nM.

What about the GI50 (SW-620 colon) of the same compound?
The GI50 was 997 nM.

And the TGI (SW-620 colon)?
The TGI was 2670 nM.

What about the GI50 (T-47D breast) of the same compound?
Its GI50 is 273 nM.

What about the TGI (T-47D breast) of the same compound?
Its TGI is 2770 nM.

What about the GI50 (TK-10 renal) of the same compound?
Its GI50 is 903 nM.

And the TGI (TK-10 renal)?
The TGI was 3270 nM.

And the GI50 (U251 CNS)?
Its GI50 is 716 nM.

And the TGI (U251 CNS)?
The TGI was 2160 nM.

And the GI50 (UACC-257 melanoma)?
The GI50 was 548 nM.

And the TGI (UACC-257 melanoma)?
The TGI was 1900 nM.

What about the GI50 (UACC-62 melanoma) of the same compound?
The GI50 was 573 nM.

What about the TGI (UACC-62 melanoma) of the same compound?
The TGI was 1560 nM.

And the GI50 (UO-31 renal)?
Its GI50 is 1390 nM.

What about the TGI (UO-31 renal) of the same compound?
The TGI was 2890 nM.
